Source: patent US20030008331A1, “Directed evolution biosensors” (priority 1998, published 2003)

System: cells which do not express the β2-adrenergic receptor (wild type)
Test: melanophore pigment dispersion assay, wild type cells
Type: cell-based, frog
Conditions: wild type melanophores, two successive tests

## CC(C)(C)NCC(O)c1ccc(O)c(CO)c1 (stereo not shown) [salbutamol]
  response of cells to challenge: did not respond
